Laboratory results as given in ChEMBL document CHEMBL1132021, “Synthesis of an imidazo[1,2-e]purine-acridine heterodimer for targeting abasic sites in DNA” (Bioorg Med Chem Lett, 1999).

Assay: Ionization state of the molecule at physiological pH was evaluated by potentiometry.
Format: ADME

Row | Compound | pKa
1 | Nc1ncnc2c1nc(N)n2[C@@H]1O[C@H](CO)[C@@H](O)[C@H]1O | 4
2 | COc1ccc2nc3cc(Cl)ccc3c(N)c2c1 | 8.99
